# Data taken from patent US5753617A, “Peptide inhibitors of cellular adhesion” (Centocor, Inc., priority 1995, dated 1998).
# Where a SMILES comes first, the peptide text is derived from it. Bridges are numbered along the chain shown (N, C = ends). [ ]: non-standard residue; d: D form. d2Nal = N[C@H](Cc1ccc2ccccc2c1)C(=O)O; dΔPro = O=C(O)[C@H]1C=CCN1
# Molecular target: T1, P-selectin (Homo sapiens, UniProt P16109)
# T1 construct: P-selectin is isolated from human platelet lysates; from tissue; host or cells: human platelets (outdated platelet packs from a blood bank)
# T1 sequence (P16109 42-830): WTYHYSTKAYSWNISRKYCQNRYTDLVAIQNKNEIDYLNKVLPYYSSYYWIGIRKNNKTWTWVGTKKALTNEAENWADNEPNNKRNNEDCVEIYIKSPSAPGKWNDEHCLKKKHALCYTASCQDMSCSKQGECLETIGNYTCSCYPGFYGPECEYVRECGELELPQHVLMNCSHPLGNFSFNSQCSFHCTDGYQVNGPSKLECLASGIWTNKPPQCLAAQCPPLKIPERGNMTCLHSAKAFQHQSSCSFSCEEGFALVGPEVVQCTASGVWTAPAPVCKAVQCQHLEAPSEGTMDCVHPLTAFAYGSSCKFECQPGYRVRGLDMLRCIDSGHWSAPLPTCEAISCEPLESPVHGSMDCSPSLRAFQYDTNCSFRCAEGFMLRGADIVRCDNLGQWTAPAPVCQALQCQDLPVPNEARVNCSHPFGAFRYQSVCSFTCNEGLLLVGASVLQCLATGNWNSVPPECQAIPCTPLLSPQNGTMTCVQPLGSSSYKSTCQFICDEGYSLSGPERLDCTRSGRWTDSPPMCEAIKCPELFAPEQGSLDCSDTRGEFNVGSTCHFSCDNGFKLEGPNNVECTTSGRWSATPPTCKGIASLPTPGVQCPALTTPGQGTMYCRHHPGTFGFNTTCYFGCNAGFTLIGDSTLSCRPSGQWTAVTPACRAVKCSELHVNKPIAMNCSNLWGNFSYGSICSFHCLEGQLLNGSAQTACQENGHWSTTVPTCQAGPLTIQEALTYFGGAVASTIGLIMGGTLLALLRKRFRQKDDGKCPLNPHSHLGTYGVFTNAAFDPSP
# Experiment: Inhibition of human neutrophil adhesion to purified P-selectin immobilized on plastic wells
# Assay type: cell-based
# Details: inhibiting the binding of human neutrophils to P-selectin
# Source text: Peptides can be screened for their ability to inhibit adhesion to cells, for example, neutrophil adhesion to purified P-selectin immobilized on plastic wells, using the assay described by Geng, et al., Nature 343, 757-760 (1990). Human neutrophils are isolated from heparinized whole blood by density gradient centrifugation on Mono-Poly resolving media, Flow Laboratories. Neutrophil suspensions are greater than 98% pure and greater than 95% viable by trypan blue exclusion. For adhesion assays, neutrophils are suspended at a concentration of 2×10^6 cells/mL in Hanks' balanced salt solution containing 1.26 mM Ca^2+ and 0.81 mM Mg^2+ (HBSS, Gibco) with […] human serum albumin (HBSS/HSA). Adhesion assays are conducted in triplicate in 96-well microliter plates, Corning, incubated at 4° C. overnight with 50 microliters of various protein solutions. P-selectin is isolated from human platelet lysates by immunoaffinity chromatography on antibody S12-Sepharose™ and ion-exchange chromatography on a Mono-Q™ column (FLPC, Pharmacia Fine Chemicals), as follows. Outdated human platelet packs (100 units) obtained from a blood bank and stored at 4° C. are pooled, adjusted to 5 mM EDTA at pH 7.5, centrifuged at 4,000 rpm for 30 minutes in 1 liter bottles, then washed three times with 1 liter of 0.1M NaCl, 20 mM Tris pH 7.5 (TBS), 5 mM EDTA, 5 mM benzamidine. The pellets are then resuspended in a minimum amount of wash buffer and made 1 mM in DIFP, then frozen in 50 mL screwtop tubes at -80° C. The frozen platelets are thawed and resuspended in 50 mL TBS, 5 mM benzamidine, 5 mM EDTA pH 7.5, […]. The suspension is frozen and thawed two times in a dry ice-acetone bath using a 600 mL lyophilizing flask, then homogenized in a glass/teflon mortar and pestle and made 1 mM in DIFP. The NaCl concentration is adjusted to 0.5M with a stock solution of 4M NaCl. After stirring the suspension at 4° C., it is centrifuged in polycarbonate tubes at 33,000 rpm for 60 minutes at 4° C. The supernatant (0.5M NaCl wash) is removed and saved; this supernatant contains the soluble form of P-selectin. Care is taken not to remove the top part of the pellet with the supernatant. The pellets are then homogenized in extraction buffer (TBS, 5 mM benzamidine, 5 mM EDTA, pH 7.5, 100 μM leupeptin, 2% Triton X-100). After centrifugation at 19,500 rpm for 25 minutes at 4° C., the supernatant is removed. The extraction procedure is repeated with the pellet and the supernatant is combined with the first supernatant. The combined extracts, which contain the membrane form of P-selectin, are adjusted to 0.5M NaCl. The soluble fraction (0.5M NaCl wash) and the membrane extract (also adjusted to 0.5M NaCl) are absorbed with separate pools of the monoclonal antibody S12 (directed to P-selectin) previously couple […]) at 5 mg/mL for 2 hours at 4° C. After letting the resins settle, the supernatants are removed. The S12 Affigel containing bound GMP-140 is then loaded into a column and washed overnight at 4° C. with 400 mL of 0.5M NaCl, 20 mM Tris pH 7.5, 0.01% Lubrol PX. Bound P-selectin is eluted from the S12 Affigel with 100 mL of 80% ethylene glycol, 1 mM MES pH 6.0, 0.01% Lubrol PX. Peak fractions with absorbance at 280 nm are pooled. Eluates are dialyzed against TBS with 0.05% Lubrol, then applied to a Mono Q column (FPLC from Pharmacia). The concentrated protein is step eluted with 2M NaCl, 20 mM Tris pH 7.5 (plus 0.05% Lubrol PX for the membrane fraction). Peak fractions are dialyzed into TBS pH 7.5 (plus 0.05% Lubrol PX for the membrane fraction). P-selectin is plated at 5 micrograms/mL and the control proteins: human serum albumin (Alb), platelet glycoprotein IIb/IIIa (IIb), von Willebrand factor (vWF), fibrinogen (FIB), thrombomodulin (TM), gelatin (GEL) or human serum (HS), are added at 50 micrograms/mL. […]
row,Structure (SMILES),IC50 [µM]
1,CC[C@H](C)[C@@H]1NC(=O)CNC(=O)[C@@H](NC(=O)[C@@H](NC(=O)[C@H](CCCCN)NC(=O)[C@@H](N)CCCNC(=N)N)[C@@H](C)CC)CCC(=O)NCCCC[C@@H](C(=O)N[C@@H](Cc2c[nH]c3ccccc23)C(=O)N[C@H](C(N)=O)C(C)C)NC(=O)[C@H](Cc2c[nH]c3ccccc23)NC1=O [(30)] (H-RKIEGIWKWV-NH2; lactam 4-8),93
2,CC[C@H](C)[C@@H]1NC(=O)CNC(=O)[C@@H](NC(=O)[C@@H](NC(=O)[C@H](CCCCN)NC(=O)[C@@H](N)CCCNC(=N)N)[C@@H](C)CC)CCCCNC(=O)CC[C@@H](C(=O)N[C@@H](Cc2c[nH]c3ccccc23)C(=O)N[C@H](C(N)=O)C(C)C)NC(=O)[C@H](Cc2c[nH]c3ccccc23)NC1=O [(31)] (H-RKIKGIWEWV-NH2; lactam 4-8),18
3,CC[C@@H](C)[C@@H](NC(=O)[C@@H](CCCCN)NC(=O)[C@H](N)CCCNC(=N)N)C(=O)NCC(=O)N[C@@H]1CSSC[C@H](C(=O)N[C@@H](C(=O)N[C@@H](C(N)=O)C(C)C)[C@H](C)O)NC(=O)[C@@H](Cc2c[nH]c3ccccc23)NC(=O)[C@@H]([C@H](C)CC)NC1=O [(32)] (H-[dR][dK][dI]G[dC][dI][dW][dC][dT][dV]-NH2; disulfide 5-8),23
4,CC(C)[C@@H](NC(=O)[C@@H](Cc1c[nH]c2ccccc12)NC(=O)[C@H](NC(=O)[C@@H](Cc1c[nH]c2ccccc12)NC(=O)[C@H]1CSSC[C@@H](NC(=O)[C@H](CCCCN)NC(=O)[C@H](N)CCCNC(=N)N)C(=O)NCC(=O)N[C@@H](Cc2ccccc2)C(=O)N1)[C@H](C)O)C(N)=O [(34)] (H-[dR]K[dC]GF[dC][dW][dT][dW][dV]-NH2; disulfide 3-6),88.5
5,CC(C)[C@@H](NC(=O)[C@@H](Cc1c[nH]c2ccccc12)NC(=O)[C@H](NC(=O)[C@@H](Cc1c[nH]c2ccccc12)NC(=O)[C@H]1CSSC[C@H](NC(=O)[C@@H](CCCCN)NC(=O)[C@H](N)CCCNC(=N)N)C(=O)NCC(=O)N[C@@H](Cc2ccccc2)C(=O)N1)[C@H](C)O)C(N)=O [(35)] (H-[dR][dK]CGF[dC][dW][dT][dW][dV]-NH2; disulfide 3-6),11.6
6,CC(C)[C@@H](NC(=O)[C@@H](Cc1c[nH]c2ccccc12)NC(=O)[C@H](NC(=O)[C@@H](Cc1c[nH]c2ccccc12)NC(=O)[C@H]1CSSC[C@@H](NC(=O)[C@@H](CCCCN)NC(=O)[C@H](N)CCCNC(=N)N)C(=O)NCC(=O)N2CC=C[C@@H]2C(=O)N1)[C@H](C)O)C(N)=O [(36)] (H-[dR][dK][dC]G[dΔPro][dC][dW][dT][dW][dV]-NH2; disulfide 3-6),267
7,CC(C)[C@@H](NC(=O)[C@@H](Cc1c[nH]c2ccccc12)NC(=O)[C@H](NC(=O)[C@@H](Cc1c[nH]c2ccccc12)NC(=O)[C@H]1CSSC[C@@H](NC(=O)[C@@H](CCCCN)NC(=O)[C@H](N)CCCNC(=N)N)C(=O)NCC(=O)N[C@@H](CCCNC(=N)N)C(=O)N1)[C@H](C)O)C(N)=O [(40)] (H-[dR][dK][dC]GR[dC][dW][dT][dW][dV]-NH2; disulfide 3-6),324
8,CC(C)[C@@H](NC(=O)[C@@H](Cc1c[nH]c2ccccc12)NC(=O)[C@H](NC(=O)[C@@H](CCC(N)=O)NC(=O)[C@H]1CSSC[C@@H](NC(=O)[C@@H](CCCCN)NC(=O)[C@H](N)CCCNC(=N)N)C(=O)NCC(=O)N[C@@H](Cc2ccccc2)C(=O)N1)[C@H](C)O)C(N)=O [(46)] (H-[dR][dK][dC]GF[dC][dQ][dT][dW][dV]-NH2; disulfide 3-6),48.4
9,CC(C)[C@@H](NC(=O)[C@@H](Cc1c[nH]c2ccccc12)NC(=O)[C@H](NC(=O)[C@@H](Cc1c[nH]cn1)NC(=O)[C@H]1CSSC[C@@H](NC(=O)[C@@H](CCCCN)NC(=O)[C@H](N)CCCNC(=N)N)C(=O)NCC(=O)N[C@@H](Cc2ccccc2)C(=O)N1)[C@H](C)O)C(N)=O [(48)] (H-[dR][dK][dC]GF[dC][dH][dT][dW][dV]-NH2; disulfide 3-6),406
10,CC[C@H](C)[C@@H]1NC(=O)[C@H]([C@@H](C)CC)NC(=O)[C@H](NC(=O)[C@@H](CCCCN)NC(=O)[C@H](N)CCCNC(=N)N)CSSC[C@H](C(=O)N[C@H](Cc2c[nH]c3ccccc23)C(=O)N[C@@H](C(=O)N[C@H](Cc2c[nH]c3ccccc23)C(=O)N[C@@H](C(N)=O)C(C)C)[C@H](C)O)NC1=O [(49)] (H-[dR][dK][dC]II[dC][dW][dT][dW][dV]-NH2; disulfide 3-6),7.1
11,CC(=O)NCCCC[C@@H](NC(=O)[C@H]1CSC[C@@H](NC(=O)[C@@H](CCCCN)NC(=O)[C@H](N)CCCNC(=N)N)C(=O)NCC(=O)N[C@@H](Cc2ccccc2)C(=O)N1)C(=O)N[C@@H](C(=O)N[C@H](Cc1c[nH]c2ccccc12)C(=O)N[C@@H](C(N)=O)C(C)C)[C@H](C)O [(50)],19.5
12,CC(C)[C@@H](NC(=O)[C@@H](Cc1c[nH]c2ccccc12)NC(=O)[C@H](NC(=O)[C@@H](Cc1ccc2ccccc2c1)NC(=O)[C@H]1CSSC[C@@H](NC(=O)[C@@H](CCCCN)NC(=O)[C@H](N)CCCNC(=N)N)C(=O)NCC(=O)N[C@@H](Cc2ccccc2)C(=O)N1)[C@H](C)O)C(N)=O [(51)] (H-[dR][dK][dC]GF[dC][d2Nal][dT][dW][dV]-NH2; disulfide 3-6),7.7
13,CC(C)[C@@H](NC(=O)[C@@H](Cc1c[nH]c2ccccc12)NC(=O)[C@H](NC(=O)[C@@H](Cc1c[nH]c2ccccc12)NC(=O)[C@H]1CSSC[C@@H](NC(=O)[C@@H](CCCCN)NC(=O)[C@H](N)CCCNC(=N)N)C(=O)N[C@H](CCCCN)C(=O)N[C@@H](Cc2ccccc2)C(=O)N1)[C@H](C)O)C(N)=O [(54)] (H-[dR][dK][dC][dK]F[dC][dW][dT][dW][dV]-NH2; disulfide 3-6),217
14,CC(C)[C@@H](NC(=O)[C@@H](Cc1c[nH]c2ccccc12)NC(=O)[C@H](NC(=O)[C@@H](CCCCN)NC(=O)[C@H]1CSSC[C@@H](NC(=O)[C@@H](CCCCN)NC(=O)[C@H](N)CCCNC(=N)N)C(=O)NCC(=O)N[C@@H](Cc2ccccc2)C(=O)N1)[C@H](C)O)C(N)=O [(56)] (H-[dR][dK][dC]GF[dC][dK][dT][dW][dV]-NH2; disulfide 3-6),727
